According to patent US9713613B2, “Methods and compositions for the treatment of cancer and related hyperproliferative disorders” (priority 2007, dated 2017):

Test system: mice (129Sv background)
Assay: mice, 48 hrs fasting / 48 hrs refeeding fat free diet
Format: in vivo
Protocol: The drug-like chemical structure of fatostatin A prompted the inventors to investigate its ability to inhibit SREBP-1 in the liver of whole animals. The effect of fatostatin A on hepatic SREBP-1 under lipogenic conditions of prolonged fasting (48 hours) followed by feeding fat free high carbohydrate diet for another 48 hours was examined. Mice were intraperitoneally injected with fatostatin A at 30 mg/kg/day for 5 days starting one day prior to the 48-hour fasting period. After 48 hours of fasting, the treated group lost more weight than the control group did (6.12±0.6 compared to 4.9±0.3 gram/mouse; p=0.01.) (FIG. 6A).
The expression levels of SREBP-1 in the liver extracts were examined by western blots. […] The hepatic expression of fatty acid synthase (FAS), a representative of SREBP-1-responsive lipogenic enzymes (Boizard et al., 1998), was also determined after the treatment. […] The activity of acetyl-CoA carboxylase (ACC) (FIG. 6F), which is also regulated by SREBP-1, decreased in liver extracts as observed for FAS (FIG. 6G).
Male mice (129Sv background) were housed under controlled conditions (12-hr light/dark cycle; 25° C.) in the Animal Care Center at Baylor College of Medicine and had ad libitum access to standard laboratory chow (Purina Mills) and water. Fatostatin A was administered intraperitoneally (30 mg/kg; 150 μL) to 5-6 month old male mice (129Sv background) using two different protocols. First protocol involves fasting the mice for 48 hrs, followed by refeeding fat free diet for another 48 hrs. This treatment induces both activities and levels of lipogenic enzymes such as ACC and FAS in addition to SREBPs. The administration of fatostatin A or 10% DMSO in PBS to control groups (n=5) started 24 hrs before the fasting and continued daily until the end of the experiment.
In the second protocol, two groups of male mice (n=5) were treated daily for two weeks with either 30 mg/kg fatostatin A or 10% DMSO in PBS. Food intake and body weight were measured daily. At the end of the experiments, the mice were briefly fasted for 4-5 hrs, and their blood was withdrawn for determination of serum constituents. The mice were then sacrificed, and their livers were quickly removed and ground to powder in liquid nitrogen. The powdered tissues were suspended in 10 ml of PBS containing 0.1 mM PMSF, 5 mM benzamidine, and 5 mg/mL protease inhibitor cocktail (Roche), homogenized using Polytron (3×30 Sec, at a high speed), and sonicated briefly to degrade DNA. The extracts were clarified by centrifugation at 16,000×g for 20 min. The samples were then subjected to western blot analysis using commercially available antibodies against FAS and SREBP-1. FAS and ACC activities were determined as described earlier (Mao et al., 2006).

SMILES: CCCc1cc(-c2nc(-c3ccc(C)cc3)cs2)ccn1 [Compound 1, 2-propyl-4-(4-p-tolylthiazol-2-yl)pyridine]
- decrease of FAS expression level in liver extracts (western blot) (30 mg/kg/day ip): up to 30%
- food intake and toxicity during the treatment (30 mg/kg/day ip for 5 days): No reduction of food intake or obvious toxicity
- weight lost after 48 hours of fasting (30 mg/kg/day ip, control 4.9±0.3): 6.12±0.6 gram/mouse
- serum glucose (after 48 hours of refeeding fat free high carbohydrate diet, control 137±14): 110 ± 23 mg/dL
- serum LDL (after 48 hours of refeeding, control 30±6): 16 ± 5 mg/dL
- serum cholesterol (after 48 hours of refeeding, control 120±19): 93 ± 20 mg/dL
